Assay results taken from patent publication US10357576B2, “18F-labelled folate/antifolate analogues” (MERCK & CIE, priority 2012, dated 2019).

Experiments:
KB tumor xenografts = assay: PET imaging studies in KB tumor-bearing mice; type: in vivo
Description: PET experiments were performed with an eXplore VISTA PET/CT tomograph (GE). Tumor bearing mice were injected with 10-18 MBq of 3′-aza-2′-[^18F]fluorofolic acid (100-150 μl per injection) via lateral tail vein. […] Animals were anesthetized with isoflurane in an air/oxygen mixture. The PET scans were acquired from 120-150 min p.i. After acquisition, PET data were reconstructed in user-defined time frames. The fused datasets of PET and CT were analyzed with PMOD (version 3.2) software.
Dynamic PET scans of mice 1.5-90 min p.i. of 3′-aza-2′-[^18F]fluorofolic acid and at 60-150 min p.i. were performed. Static PET scans of [^18F]-2′3′-aza-folic acid were typically performed with a scan time from 120-150 min p.i. […] The uptake in other non-target organs was negligible, the only exceptions being the liver, kidneys and salivary glands.

[1] = Stability experiments using liver microsomes (human); type: in vitro ADME; conditions: 37° C., 1 h, NADPH regenerating system, radio-UPLC
Source text: General: Reagents and solvents were purchased from Sigma-Aldrich Chemie GmbH, Acros Organics or VWR International AG if nothing else is mentioned. All chemicals were used as supplied. Human and mouse (female CD-1) microsomes and the NADPH regenerating systems were purchased from BD biosciences.
(§1) Radio-UPLC: For stability studies, an ultra-performance liquid chromatography (UPLC™, Waters) system, equipped with an Acquity UPLC BEH C18 column (1.7 μm, 2.1×50 mm, Waters) and a coincidence detector (FlowStar LB513, Berthold) was used with following solvent system: eluent A was a NaH2PO4/Na2HPO4 buffer (0.05 M, pH 7.4) and eluent B was acetonitrile. A gradient from 0-4.0 min 100%-40% A, at a flow rate of 0.6 ml/min was used.
To a mixture of KH2PO4/K2HPO4 buffer (pH 7.4, 0.5 M, 200 μl), NADPH regenerating system A (50 μl), NADPH regenerating system B (10 μl), an aliquot of [^18F]-3′-aza-2′-fluorofolic acid (38 μl, approx. 15 MBq) was added and filled up with water (677 μl) to a volume of 975 μl and preincubated at 37° C. Then, mouse or human liver microsomes (20 mg/ml, 25 μl) were added and incubated at 37° C. After several time points (0, 20, 40 and 60 min) aliquots (100 μl) were drawn and the enzymatical reaction was stopped by purring the solution into ice-cold methanol (200 μl). […] Every time point was performed as a triplicate and analyzed on a radio-UPLC system. […]

Human plasma stability = type: in vitro ADME; conditions: 37° C., 4 h, radio-UPLC
Description: as §1
The radiotracer was tested with regard to its stability in human blood plasma over a period of 4 hours at 37° C. The formulated product (200 μL) was diluted with sodium phosphate buffer (100 μl) and an aliquot (60 μl, 15 MBq) was added to human plasma (500 μL), pre-incubated at 37° C. The mixture was shaken on a Thermomixer compact (Eppendorf) at 37° C. and 500 rpm. After several time points (0, 30, 60, 120, 150 and 240 min) aliquots were taken after tracer addition. Each aliquot (70 μl) was added to ice-cold MeOH (150 μl) to precipitate the proteins. To separate the supernatant from the precipitate, the suspension was centrifuged for 10 min at 13400 rpm (Eppendorf MiniSpin) at room temperature. The supernatant was passed through a microfilter (Sartorius Stedim Biotech GmbH, Minisart RC 25, 0.45 μm) and was analyzed on the radio-UPLC system.

[2] = Log D7.4 determination, shake-flask method (n-octanol/PBS); type: physicochemical; conditions: n-octanol/PBS pH 7.4, room temperature, n=10
Description: Determination of the Log D: Determination of the log D value was performed, using the shake-flask-method, where the partition coefficient of the radiotracer between n-octanol and phosphate buffered saline (PBS) was determined (Wilson et al. 2001 Applied Radiation and Isotopes). n-Octanol (0.5 ml) and PBS (0.5 ml) were mixed in an Eppendorf tube containing the radioactive sample (5-10 μl). Tubes were shaken for 15 min at room temperature in an over-head shaker and afterwards centrifuged (3 min, 5000 rpm). From each Eppendorf tube, 50 μl of each phase were transferred into a vial for counting in a γ-counter. The log D value was calculated according to the following equation: log D7.4=log [activity(octanol phase)/activity PBS phase)].
For log D7.4 determination a phosphate buffer was prepared, making a solution of KH2PO4 (1.743 g, 12.81 mmol) and Na2HPO4.2H2O (9.596 g, 53.91 mmol) in water (1000 ml). A saturated solution of phosphate buffer in n-octanol and a saturated solution of n-octanol in phosphate buffer were prepared. The PBS solution (500 μl) and n-octanol solution (500 μl) were pipetted into an Eppendorf tube and the radiotracer (5-10 μl) was added. The Eppendorf tube was shaken for 15 min at room temperature in an over-head shaker. […] By calculating the logarithm of the ratio of the counts in the n-octanol and the PBS phase, the log D7.4 value was determined. […]

[3] = Ex vivo metabolite studies in KB tumor bearing mice; conditions: i.v., radio-UPLC
Description: as §1
For the determination of radiometabolites in vivo, 3′-aza-2′-[^18F]fluorofolic acid (60-70 MBq) was intravenously injected into KB tumor bearing mice (n=2). After 5 min, blood samples were drawn from the opposite vein and the animals were sacrificed 30 min after radiotracer injection. The whole blood, liver, tumor and urine were collected. Blood samples were centrifuged at 5000 g for 5 min at 4° C. The proteins of the plasma samples were precipitated by addition of the same volume of ice-cold methanol followed by centrifugation. The supernatants of the plasma and the urine sample were diluted with PBS buffer and analyzed by radio-UPLC. Liver and tumor tissue were homogenized in an equal volume of PBS using a PT 1200 C Polytron (Kinematica AG), respectively. After addition of the same volume of ice-cold MeOH, the mixture was centrifuged at 5000 g for 5 min and 4° C. The supernatant was cleared from remaining proteins by addition of ice-cold methanol, followed by centrifugation. The resulting supernatant fractions were diluted with PBS buffer and analyzed by radio-UPLC.

[4] = PET, pemetrexed 400 μg 60 min prior to the radiotracer

For Nc1nc2ncc(CNc3ccc(C(=O)N[C@@H](CCC(=O)O)C(=O)O)c([18F])n3)nc2c(=O)[nH]1 [3′-aza-2′-[^18F]fluorofolic acid], the “Uptake in the tumor tissue and in the kidneys with coinjected folic acid” value (KB tumor xenografts; PET 120-150 min p.i., excess folic acid 100 μg) was “reduced uptake”, the “Accumulation in the liver after preinjection of pemetrexed” value (KB tumor xenografts; [4]) was “very strong reduction” and the “Kidney uptake after preinjection of pemetrexed” value (KB tumor xenografts; [4]) was “reduced kidney uptake”. The “Tumor uptake after preinjection of pemetrexed” value (KB tumor xenografts; [4]) was “high tumor uptake”, the “Specific uptake in KB tumor xenografts” value (KB tumor xenografts; quoted with static baseline PET scan 120-150 min p.i.) was 12.6±1.8 % ID/g and the “Uptake in other non-target organs (except liver, kidneys and salivary glands)” value (KB tumor xenografts; static baseline PET scan 120-150 min p.i.) was “negligible”. The “Stability in human liver microsomes” value [1] was “completely stable”, the “Stability in human blood plasma” value (Human plasma stability) was “completely stable” and the “log D7.4 (partition coefficient in n-octanol/PBS)” value [2] was −4.2±0.1. For the same compound, the logD ([2]; read-out: log D7.4 (partition coefficient in n-octanol/PBS)) was -4.2 ± 0.1, the Radiometabolites in liver ([3]; 30 min p.i.) was “signs of metabolism” and the Radiometabolites in tumor ([3]; 30 min p.i.) was “no detectable amounts of metabolites”. For the same compound, the Radiometabolites in urine ([3]; 30 min p.i.) was “no detectable amounts of metabolites”, the Radiometabolites in plasma ([3]; plasma sample 5 min p.i.) was “no detectable amounts of metabolites” and the Radiometabolites in plasma ([3]; plasma sample 30 min p.i.) was “no detectable amounts of metabolites”.
